Measurements from PubChem BioAssay AID1963967 (Molecular Pharmacology Branch, DTP, NCI, 2024).

Test system: 855422-203-R-J1-PDC spheroids with HUVEC/MSC, viability
Experiment: Anticancer human tumor 855422-203-R-J1-PDC patient-derived bladder carcinoma cell line growth inhibition [PI3K]
Conditions: for IC50: curve of first compound; for viability, T/C: stronger effect = lower value
Summary of the method: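 Combination activity was assessed by viability in multicellular tumor spheroids carrying HUVEC and MSC components. Agents were tested with PI3K inhibitors from a Cmax-based top dose (or 10 microM) downward in half-log increments.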

[1] = second compound 0.0316 µM, first compound 0.0316 µM
[2] = second compound 0.0316 µM, first compound 0.1 µM
[3] = second compound 0.0316 µM, first compound 0.316 µM
[4] = second compound 0.0316 µM, first compound 1 µM
[5] = second compound 0.0316 µM, first compound 3.16 µM
[6] = second compound 0.0316 µM, first compound 10 µM
[7] = second compound 0.1 µM, first compound 0.0316 µM
[8] = second compound 0.1 µM, first compound 0.1 µM
[9] = second compound 0.1 µM, first compound 0.316 µM
[10] = second compound 0.1 µM, first compound 1 µM
[11] = second compound 0.1 µM, first compound 3.16 µM
[12] = second compound 0.1 µM, first compound 10 µM
[13] = second compound 0.316 µM, first compound 0.0316 µM
[14] = second compound 0.316 µM, first compound 0.1 µM
[15] = second compound 0.316 µM, first compound 0.316 µM
[16] = second compound 0.316 µM, first compound 1 µM
[17] = second compound 0.316 µM, first compound 3.16 µM
[18] = second compound 0.316 µM, first compound 10 µM
[19] = second compound 1 µM, first compound 0.0316 µM
[20] = second compound 1 µM, first compound 0.1 µM
[21] = second compound 1 µM, first compound 0.316 µM
[22] = second compound 1 µM, first compound 1 µM
[23] = second compound 1 µM, first compound 3.16 µM
[24] = second compound 1 µM, first compound 10 µM
[25] = second compound 3.16 µM, first compound 0.0316 µM
[26] = second compound 3.16 µM, first compound 0.1 µM
[27] = second compound 10 µM, first compound 0.0316 µM
[28] = second compound 10 µM, first compound 0.1 µM
[29] = second compound 0.0316 µM, first compound 0.000316 µM
[30] = second compound 0.0316 µM, first compound 0.001 µM
[31] = second compound 0.0316 µM, first compound 0.00316 µM
[32] = second compound 0.0316 µM, first compound 0.01 µM
[33] = second compound 0.1 µM, first compound 0.000316 µM
[34] = second compound 0.1 µM, first compound 0.001 µM
[35] = second compound 0.1 µM, first compound 0.00316 µM
[36] = second compound 0.1 µM, first compound 0.01 µM
[37] = second compound 0.316 µM, first compound 0.000316 µM
[38] = second compound 0.316 µM, first compound 0.001 µM
[39] = second compound 0.316 µM, first compound 0.00316 µM
[40] = second compound 0.316 µM, first compound 0.01 µM
[41] = second compound 1 µM, first compound 0.000316 µM
[42] = second compound 1 µM, first compound 0.001 µM
[43] = second compound 1 µM, first compound 0.00316 µM
[44] = second compound 1 µM, first compound 0.01 µM
[45] = second compound 0.00316 µM, first compound 0.0316 µM
[46] = second compound 0.00316 µM, first compound 0.1 µM
[47] = second compound 0.01 µM, first compound 0.0316 µM
[48] = second compound 0.01 µM, first compound 0.1 µM
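Note: agents incubated with spheroids for one week before read-out.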
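Throughout, for viability, T/C: 100% = DMSO vehicle-treated control wells.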

SMILES: CC1(C)CCC(CN2CCN(c3ccc(C(=O)NS(=O)(=O)c4ccc(NCC5CCOCC5)c([N+](=O)[O-])c4)c(Oc4cnc5[nH]ccc5c4)c3)CC2)=C(c2ccc(Cl)cc2)C1 + Cc1nc(NC(=O)N2CCCC2C(N)=O)sc1-c1ccnc(C(C)(C)C(F)(F)F)c1
- IC50 (second compound 0.0316 µM): 4570 nM
- IC50 (second compound 0.1 µM): 4940 nM
- IC50 (second compound 0.316 µM): 5260 nM
- IC50 (second compound 1 µM): 4580 nM
- IC50 (second compound 3.16 µM): < 31.6 nM
- IC50 (second compound 10 µM): < 31.6 nM
- viability, T/C [1]: 105%
- viability, T/C [2]: 89.9%
- viability, T/C [3]: 112%
- viability, T/C [4]: 100%
- viability, T/C [5]: 72.8%
- viability, T/C [6]: 1.55%
- viability, T/C [7]: 99.8%
- viability, T/C [8]: 87.4%
- viability, T/C [9]: 101%
- viability, T/C [10]: 102%
- viability, T/C [11]: 80.6%
- viability, T/C [12]: 1.52%
- viability, T/C [13]: 89.8%
- viability, T/C [14]: 91.8%
- viability, T/C [15]: 95.3%
- viability, T/C [16]: 92.1%
- viability, T/C [17]: 88.6%
- viability, T/C [18]: 1.39%
- viability, T/C [19]: 76.8%
- viability, T/C [20]: 77%
- viability, T/C [21]: 69.5%
- viability, T/C [22]: 81%
- viability, T/C [23]: 73.3%
- viability, T/C [24]: 0.91%
- viability, T/C [25]: 47.7%
- viability, T/C [26]: 45.5%
- viability, T/C (second compound 3.16 µM, first compound 0.316 µM): 42.7%
- viability, T/C (second compound 3.16 µM, first compound 1 µM): 49%
- viability, T/C (second compound 3.16 µM, first compound 3.16 µM): 47%
- viability, T/C (second compound 3.16 µM, first compound 10 µM): 0.59%
- viability, T/C [27]: 25.8%
- viability, T/C [28]: 23.5%
- viability, T/C (second compound 10 µM, first compound 0.316 µM): 25.7%
- viability, T/C (second compound 10 µM, first compound 1 µM): 29.4%
- viability, T/C (second compound 10 µM, first compound 3.16 µM): 24.7%
- viability, T/C (second compound 10 µM, first compound 10 µM): 0.6%

SMILES: CC(=O)c1c(C)c2cnc(Nc3ccc(N4CCNCC4)cn3)nc2n(C2CCCC2)c1=O + CC(Nc1ncnc2nc[nH]c12)c1cc2cccc(Cl)c2c(=O)n1-c1ccccc1
- IC50 (second compound 0.0316 µM): > 100 nM
- IC50 (second compound 0.1 µM): > 100 nM
- IC50 (second compound 0.316 µM): > 100 nM
- IC50 (second compound 1 µM): > 100 nM
- IC50 (second compound 3.16 µM): > 100 nM
- IC50 (second compound 10 µM): 65.4 nM
- viability, T/C [29]: 106%
- viability, T/C [30]: 95.8%
- viability, T/C [31]: 105%
- viability, T/C [32]: 93.4%
- viability, T/C [1]: 100%
- viability, T/C [2]: 79%
- viability, T/C [33]: 111%
- viability, T/C [34]: 92.5%
- viability, T/C [35]: 105%
- viability, T/C [36]: 99.8%
- viability, T/C [7]: 94.4%
- viability, T/C [8]: 76.2%
- viability, T/C [37]: 101%
- viability, T/C [38]: 108%
- viability, T/C [39]: 110%
- viability, T/C [40]: 95.3%
- viability, T/C [13]: 105%
- viability, T/C [14]: 81.3%
- viability, T/C [41]: 91.9%
- viability, T/C [42]: 102%
- viability, T/C [43]: 102%
- viability, T/C [44]: 101%
- viability, T/C [19]: 95.9%
- viability, T/C [20]: 73.9%
- viability, T/C (second compound 3.16 µM, first compound 0.000316 µM): 98.7%
- viability, T/C (second compound 3.16 µM, first compound 0.001 µM): 96.4%
- viability, T/C (second compound 3.16 µM, first compound 0.00316 µM): 101%
- viability, T/C (second compound 3.16 µM, first compound 0.01 µM): 93.2%
- viability, T/C [25]: 85.4%
- viability, T/C [26]: 54%
- viability, T/C (second compound 10 µM, first compound 0.000316 µM): 84.7%
- viability, T/C (second compound 10 µM, first compound 0.001 µM): 84.3%
- viability, T/C (second compound 10 µM, first compound 0.00316 µM): 80%
- viability, T/C (second compound 10 µM, first compound 0.01 µM): 73.9%
- viability, T/C [27]: 74.3%
- viability, T/C [28]: 36.9%

SMILES: CC(=O)c1c(C)c2cnc(Nc3ccc(N4CCNCC4)cn3)nc2n(C2CCCC2)c1=O + COc1c(OCCCN2CCOCC2)ccc2c3n(c(=NC(=O)c4cnc(N)nc4)nc12)CCN3
- IC50 (second compound 0.00316 µM): > 100 nM
- IC50 (second compound 0.01 µM): > 100 nM
- IC50 (second compound 0.0316 µM): 18.9 nM
- IC50 (second compound 0.1 µM): < 0.316 nM
- IC50 (second compound 0.316 µM): < 0.316 nM
- IC50 (second compound 1 µM): < 0.316 nM
- viability, T/C (second compound 0.00316 µM, first compound 0.000316 µM): 91.7%
- viability, T/C (second compound 0.00316 µM, first compound 0.001 µM): 101%
- viability, T/C (second compound 0.00316 µM, first compound 0.00316 µM): 95.2%
- viability, T/C (second compound 0.00316 µM, first compound 0.01 µM): 98.3%
- viability, T/C [45]: 90.5%
- viability, T/C [46]: 73.5%
- viability, T/C (second compound 0.01 µM, first compound 0.000316 µM): 83.1%
- viability, T/C (second compound 0.01 µM, first compound 0.001 µM): 88.4%
- viability, T/C (second compound 0.01 µM, first compound 0.00316 µM): 88.2%
- viability, T/C (second compound 0.01 µM, first compound 0.01 µM): 84.7%
- viability, T/C [47]: 86.6%
- viability, T/C [48]: 56.5%
- viability, T/C [29]: 67.9%
- viability, T/C [30]: 63.5%
- viability, T/C [31]: 58.4%
- viability, T/C [32]: 55.2%
- viability, T/C [1]: 47.6%
- viability, T/C [2]: 26.9%
- viability, T/C [33]: 26.8%
- viability, T/C [34]: 27.5%
- viability, T/C [35]: 22.6%
- viability, T/C [36]: 25.4%
- viability, T/C [7]: 20%
- viability, T/C [8]: 12.1%
- viability, T/C [37]: 10.4%
- viability, T/C [38]: 7.97%
- viability, T/C [39]: 9.28%
- viability, T/C [40]: 8.98%
- viability, T/C [13]: 6.22%
- viability, T/C [14]: 5.08%
- viability, T/C [41]: 3.62%
- viability, T/C [42]: 4.81%
- viability, T/C [43]: 3.28%
- viability, T/C [44]: 3.47%
- viability, T/C [19]: 4.56%
- viability, T/C [20]: 3.64%

SMILES: C#Cc1c(F)ccc2cc(O)cc(-c3ncc4c(N5CC6CCC(C5)N6)nc(OCC56CCCN5CC(F)C6)nc4c3F)c12 (stereo not drawn) + CC(Nc1ccc2c(c1)OCCn1cc(N3C(=O)OCC3C(F)F)nc1-2)C(N)=O
- IC50 (second compound 0.00316 µM): > 10000 nM
- IC50 (second compound 0.01 µM): > 10000 nM
- IC50 (second compound 0.0316 µM): > 10000 nM
- IC50 (second compound 0.1 µM): > 10000 nM
- IC50 (second compound 0.316 µM): 3610 nM
- IC50 (second compound 1 µM): < 31.6 nM
- viability, T/C [45]: 94.4%
- viability, T/C [46]: 85.1%
- viability, T/C (second compound 0.00316 µM, first compound 0.316 µM): 109%
- viability, T/C (second compound 0.00316 µM, first compound 1 µM): 89.2%
- viability, T/C (second compound 0.00316 µM, first compound 3.16 µM): 107%
- viability, T/C (second compound 0.00316 µM, first compound 10 µM): 110%
- viability, T/C [47]: 106%
- viability, T/C [48]: 93%
- viability, T/C (second compound 0.01 µM, first compound 0.316 µM): 96.6%
- viability, T/C (second compound 0.01 µM, first compound 1 µM): 98.2%
- viability, T/C (second compound 0.01 µM, first compound 3.16 µM): 110%
- viability, T/C (second compound 0.01 µM, first compound 10 µM): 116%
- viability, T/C [1]: 82.4%
- viability, T/C [2]: 87.8%
- viability, T/C [3]: 89.9%
- viability, T/C [4]: 92.4%
- viability, T/C [5]: 105%
- viability, T/C [6]: 92.9%
- viability, T/C [7]: 71.7%
- viability, T/C [8]: 69.8%
- viability, T/C [9]: 58.7%
- viability, T/C [10]: 82.8%
- viability, T/C [11]: 77.8%
- viability, T/C [12]: 73.6%
- viability, T/C [13]: 55.5%
- viability, T/C [14]: 55.3%
- viability, T/C [15]: 44.7%
- viability, T/C [16]: 54.6%
- viability, T/C [17]: 53.9%
- viability, T/C [18]: 29.1%
- viability, T/C [19]: 38.7%
- viability, T/C [20]: 31.5%
- viability, T/C [21]: 35.1%
- viability, T/C [22]: 32.8%
- viability, T/C [23]: 29.4%
- viability, T/C [24]: 17.6%
